Drawing on patent publication US5455356A, “Fungicidal 1-aryl-1-[α-(triazolyl)alkyl]-1-silacycloalkanes and their preparation methods” (priority 1993, dated 1995), this text covers inhibition of growth for nine compounds.

Assay type in all cases: cell-based
The subject of one assay is GC. Kind of assay: In vitro mycelial/spore growth on potato-sucrose-agar, percent disease control (GC). As to conditions: read-out: % controlled, GC; for inhibition of growth at 50 ppm: GC. The method, then:
(§1) The compounds of this invention were dissolved respectively in acetone in an amount equal to 10% of the final volume and then in purified water at the concentration of 100 ppm and 50 ppm.
(§2) Each of the solution was mixed with potato-sucrose-agar medium in 6" petri dish and one of the fungi was spotted at the center of the dish. The dish was incubated in growth room for several days. The percent disease control was derived from the radii of spore growth. The screening tests in vitro condition are well-known to those skilled in the art.
(§3) The following fungi were used for the screening.

Another assay has as its system Phytophthora capsisi. Put plainly: In vitro mycelial/spore growth on potato-sucrose-agar, percent disease control (PC). As to conditions: read-out: % controlled, PC. As to the method:
as §1, §2, §3
2) Phy. ca.; Phytophthora capsisi

The next assay relates to Rhizopus sp. Kind of assay: In vitro mycelial/spore growth on potato-sucrose-agar, percent disease control (RS, second column). As to conditions: read-out: % controlled, RS; for inhibition of growth at 50 ppm: Rhizopus sp.; for inhibition of growth at 200 ppm: Rhizopus. The method, then:
as §1, §2, §3
9) Rhi. sp.; Rhizopus sp.

Another assay deals with Fusarium moniliforme. Kind of assay: In vitro mycelial/spore growth on potato-sucrose-agar, percent disease control (FM). As to conditions: Fusarium verticillioides, Fusarium moniliforme, read-out: % controlled, FM. The method, then:
as §1, §2, §3
8) Fu. mo.; Fusarium moniliforme

A further assay concerns Pyricalaria oryzae. Kind of assay: In vitro mycelial/spore growth on potato-sucrose-agar, percent disease control (PO). As to conditions: read-out: % controlled, PO. The method, then: as §1, §2, §3
6) Py. or.; Pyricalaria oryzae

The test system of another assay is Botryosphaeri. Put plainly: In vitro mycelial/spore growth on potato-sucrose-agar, percent disease control (BD). To be noted: read-out: % controlled, BD. As to the method:
as §1, §2, §3
4) Bo. do (Ma); Botryosphaeri

Another assay has as its system Botritis cinerea. Kind of assay: In vitro mycelial/spore growth on potato-sucrose-agar, percent disease control (BC). To be noted: read-out: % controlled, BC. The method, then:
as §1, §2, §3
10) Bo. ci.; Botritis cinerea

A further assay relates to Rhizoctonia solani. Kind of assay: In vitro mycelial/spore growth on potato-sucrose-agar, percent disease control (RS, first column). As to conditions: read-out: % controlled, RS. The method, then:
as §1, §2, §3
7) Rhi. so.; Rhizoctonia solani

As for `CCOc1ccc([Si]2(C(C)n3cncn3)CCCC2)cc1` (stereo not drawn) [1-(4-ethoxyphenyl)-1-[α-(1H-1,2,4-triazole-1-yl)ethyl]-1-silacyclopentane], the inhibition of growth at 50 ppm with GC turned out to be 100%; in the assay on Phytophthora capsisi it was 43%; in the assay on Rhizopus sp. it was 63%; in the assay on Fusarium moniliforme it was 93%; with Pyricalaria oryzae it was 100%; with Botryosphaeri it was 70%. The inhibition of growth at 50 ppm with Botritis cinerea was determined as 79%; in the assay on Rhizoctonia solani, 100%. The inhibition of growth at 200 ppm is 100% in the assay on GC; 91% in the assay on Phytophthora capsisi; 90% in the assay on Rhizopus sp.; 100% in the assay with Fusarium moniliforme; 100% in the assay with Pyricalaria oryzae; 95% with Botryosphaeri. Moreover, the inhibition of growth at 200 ppm is 94% with Botritis cinerea and 100% in the assay on Rhizoctonia solani.

As for `CC(n1cncn1)[Si]1(c2ccc(F)cc2)CCCCC1` (stereo not drawn) [1-(4-fluorophenyl)-1-[α-(1H-1,2,4-triazole-1-yl)ethyl]-1-silacyclohexane], the inhibition of growth at 50 ppm in the assay on GC turned out to be 100%; in the assay on Phytophthora capsisi it was 77%; in the assay on Rhizopus sp. it was 76%; in the assay with Fusarium moniliforme, 100%; with Pyricalaria oryzae, 100%; with Botryosphaeri it was 100%. Further, the inhibition of growth at 50 ppm in the assay on Botritis cinerea and with Rhizoctonia solani was 100% each time. The inhibition of growth at 200 ppm amounted to 100% in the assay on GC; 85% in the assay with Phytophthora capsisi; 86% with Rhizopus sp.; 100% with Fusarium moniliforme; 100% in the assay with Pyricalaria oryzae; 100% in the assay on Botryosphaeri. Also, the inhibition of growth at 200 ppm in the assay with Botritis cinerea and in the assay on Rhizoctonia solani was 100% in each case.

With `CCOc1ccc([Si]2(Cn3cncn3)CCCC2)cc1` [1-(4-ethoxyphenyl)-1-(1H-1,2,4-triazole-1-yl)methyl-1-silacyclopentane], the inhibition of growth at 50 ppm in the assay on GC was found to be 100%; in the assay on Phytophthora capsisi it was 40%; in the assay on Rhizopus sp. it was 66%; with Fusarium moniliforme it was 68%; with Pyricalaria oryzae, 100%; with Botryosphaeri, 82%. The inhibition of growth at 50 ppm came out at 70% in the assay on Botritis cinerea and 72% with Rhizoctonia solani. The inhibition of growth at 200 ppm in the assay on GC turned out to be 100%; with Phytophthora capsisi, 100%; in the assay on Rhizopus sp., 77%; with Fusarium moniliforme it was 79%; in the assay on Pyricalaria oryzae, 100%; with Botryosphaeri, 89%. Moreover, the inhibition of growth at 200 ppm with Botritis cinerea stood at 74%; with Rhizoctonia solani it was 100%.

On to `Fc1ccc([Si]2(Cn3cncn3)CCCCC2)cc1` [1-(4-fluorophenyl)-1-(1H-1,2,4-triazole-1-yl)methyl-1-silacyclohexane], for which the inhibition of growth at 50 ppm worked out at 100% in the assay on GC; 47% in the assay with Phytophthora capsisi; 75% in the assay on Rhizopus sp.; 100% in the assay on Fusarium moniliforme; 96% in the assay with Pyricalaria oryzae; 100% with Botryosphaeri. In addition, the inhibition of growth at 50 ppm worked out at 100% with Botritis cinerea and 55% with Rhizoctonia solani. For the same compound, the inhibition of growth at 200 ppm stood at 100% in the assay on GC; 74% with Phytophthora capsisi; 93% in the assay with Rhizopus sp.; 100% with Fusarium moniliforme; 100% with Pyricalaria oryzae; 100% in the assay on Botryosphaeri. For the same compound, the inhibition of growth at 200 ppm in the assay on Botritis cinerea worked out at 100%; in the assay with Rhizoctonia solani it was 59%.

For `Clc1ccc([Si]2(Cn3cncn3)CCCC2)c(Cl)c1` [1-(2,4-dichlorophenyl)-1-(1H-1,2,4-triazole-1-yl)methyl-1-silacyclopentane], the inhibition of growth at 50 ppm with GC was 100%; with Phytophthora capsisi it was 72%; with Rhizopus sp. it was 59%; with Fusarium moniliforme it was 100%; in the assay on Pyricalaria oryzae, 100%; with Botryosphaeri, 97%. Also, the values for the inhibition of growth at 50 ppm with Botritis cinerea and in the assay with Rhizoctonia solani were 99% and 65%, respectively. The inhibition of growth at 200 ppm with GC worked out at 100%; in the assay with Phytophthora capsisi it was 79%; with Rhizopus sp., 70%; with Fusarium moniliforme it was 100%; with Pyricalaria oryzae it was 100%; in the assay with Botryosphaeri, 100%. The inhibition of growth at 200 ppm in the assay with Botritis cinerea and in the assay with Rhizoctonia solani was 100% in each case.

Regarding `CC(n1cncn1)[Si]1(c2ccc(Cl)cc2)CCCCC1` (stereo not drawn) [1-(4-chlorophenyl)-1-[α-(1H-1,2,4-triazole-1-yl)ethyl]-1-silacyclohexane], the inhibition of growth at 50 ppm in the assay on GC is 100%; with Phytophthora capsisi, 75%; in the assay with Rhizopus sp., 77%; with Fusarium moniliforme it was 100%; in the assay with Pyricalaria oryzae it was 100%; in the assay with Botryosphaeri, 100%. The inhibition of growth at 50 ppm with Botritis cinerea and in the assay on Rhizoctonia solani was 100% each time. The inhibition of growth at 200 ppm in the assay on GC was 100%; in the assay with Phytophthora capsisi, 100%; in the assay with Rhizopus sp. it was 90%; with Fusarium moniliforme, 100%; with Pyricalaria oryzae, 100%; with Botryosphaeri, 100%. Further, the inhibition of growth at 200 ppm in the assay on Botritis cinerea and in the assay with Rhizoctonia solani was 100% each time.

Regarding `Clc1ccc([Si]2(Cn3cncn3)CCCCC2)cc1` [1-(4-chlorophenyl)-1-(1H-1,2,4-triazole-1-yl)methyl-1-silacyclohexane], the inhibition of growth at 50 ppm was 100% in the assay with GC; 90% with Phytophthora capsisi; 50% in the assay with Rhizopus sp.; 100% in the assay with Fusarium moniliforme; 100% in the assay with Pyricalaria oryzae; 100% in the assay with Botryosphaeri. For the same compound, the inhibition of growth at 50 ppm with Botritis cinerea came out at 100%; in the assay with Rhizoctonia solani, 57%. Also, the inhibition of growth at 200 ppm came to 100% with GC; 100% with Phytophthora capsisi; 92% in the assay with Rhizopus sp.; 100% with Fusarium moniliforme; 100% in the assay on Pyricalaria oryzae; 100% with Botryosphaeri. For the same compound, the inhibition of growth at 200 ppm with Botritis cinerea was found to be 100%; in the assay with Rhizoctonia solani, 69%.

On to `CC(n1cncn1)[Si]1(c2ccc(F)cc2)CCCC1` (stereo not drawn) [1-(4-fluorophenyl)-1-[α-(1H-1,2,4-triazole-1-yl)ethyl]-1-silacyclopentane], for which the inhibition of growth at 50 ppm in the assay with GC amounted to 100%; in the assay with Phytophthora capsisi it was 45%; in the assay with Rhizopus sp., 59%; with Fusarium moniliforme, 94%; in the assay with Pyricalaria oryzae it was 100%; with Botryosphaeri, 100%. Also, the inhibition of growth at 50 ppm in the assay with Botritis cinerea and with Rhizoctonia solani was 100% each time. The inhibition of growth at 200 ppm in the assay with GC was 100%; with Phytophthora capsisi it was 100%; in the assay on Rhizopus sp. it was 75%; with Fusarium moniliforme it was 100%; in the assay on Pyricalaria oryzae it was 100%; with Botryosphaeri, 100%. Also, the inhibition of growth at 200 ppm in the assay with Botritis cinerea and with Rhizoctonia solani was 100% in each case.

In the case of `c1ccc(-c2ccc([Si]3(Cn4cncn4)CCCCC3)cc2)cc1` [1-(4-biphenyl)-1-(1H-1,2,4-triazole-1-yl)methyl-1-silacyclohexane], the inhibition of growth at 50 ppm in the assay on GC worked out at 100%; in the assay with Phytophthora capsisi, 92%; in the assay with Rhizopus sp. it was 72%; with Fusarium moniliforme, 100%; in the assay on Pyricalaria oryzae, 100%; in the assay with Botryosphaeri, 100%. Moreover, the inhibition of growth at 50 ppm in the assay with Botritis cinerea was found to be 100%; in the assay with Rhizoctonia solani, 71%. In addition, the inhibition of growth at 200 ppm came to 100% in the assay with GC; 100% with Phytophthora capsisi; 94% with Rhizopus sp.; 100% in the assay on Fusarium moniliforme; 100% in the assay on Pyricalaria oryzae; 100% with Botryosphaeri. Also, the values for the inhibition of growth at 200 ppm in the assay on Botritis cinerea and in the assay on Rhizoctonia solani were 100% and 80%, respectively.
